Measured values from the NIST ThermoML archive (doi:10.1021/je200707b).
± gives the expanded uncertainty stated by the source.

Legend:
[1] = 101.33 kPa, Liquid; for viscosity: Falling or rolling sphere viscometry; for mass density: Vibrating tube method
[2] = refractive index (Na D-line) (dimensionless); conditions: 298.15 K; 101.33 kPa; Liquid; Standard Abbe refractometry

Structure (SMILES)	viscosity ([1]; 293.15 K)	mass density ([1]; 293.15 K)	viscosity ([1]; 298.15 K)	mass density ([1]; 298.15 K)	viscosity ([1]; 303.15 K)	mass density ([1]; 303.15 K)	viscosity ([1]; 308.15 K)	mass density ([1]; 308.15 K)	viscosity ([1]; 313.15 K)	mass density ([1]; 313.15 K)	refractive index [2]
CCO [ethanol]	1.241 ± 0.034 mPa·s	789.54 ± 0.37 kg/m3	1.128 ± 0.031 mPa·s	785.25 ± 0.37 kg/m3	1.029 ± 0.028 mPa·s	780.93 ± 0.37 kg/m3	0.92 ± 0.025 mPa·s	776.57 ± 0.37 kg/m3	0.842 ± 0.023 mPa·s	772.18 ± 0.37 kg/m3	1.3594 ± 0.0011
CC(=O)O.CCCCN [butylammonium acetate]	771.69 ± 71 mPa·s	959.61 ± 0.42 kg/m3	546.35 ± 44 mPa·s	956.44 ± 0.42 kg/m3	397.17 ± 28 mPa·s	953.33 ± 0.42 kg/m3	294.59 ± 18 mPa·s	950.15 ± 0.42 kg/m3	222.24 ± 12 mPa·s	946.98 ± 0.42 kg/m3	1.4426 ± 0.0011
CCCCO [butan-1-ol]	2.983 ± 0.082 mPa·s	809.7 ± 0.38 kg/m3	2.617 ± 0.072 mPa·s	805.9 ± 0.38 kg/m3	2.306 ± 0.063 mPa·s	802.05 ± 0.37 kg/m3	2.04 ± 0.056 mPa·s	798.17 ± 0.37 kg/m3	1.811 ± 0.05 mPa·s	794.26 ± 0.37 kg/m3	1.3973 ± 0.0011
CO [methanol]	0.588 ± 0.016 mPa·s	791.28 ± 0.37 kg/m3	0.557 ± 0.015 mPa·s	786.56 ± 0.37 kg/m3	0.519 ± 0.014 mPa·s	781.83 ± 0.37 kg/m3	0.49 ± 0.013 mPa·s	777.07 ± 0.37 kg/m3	0.462 ± 0.013 mPa·s	772.29 ± 0.37 kg/m3	1.3265 ± 0.0011
CCCO [propan-1-ol]	2.229 ± 0.061 mPa·s	803.55 ± 0.37 kg/m3	1.975 ± 0.054 mPa·s	799.55 ± 0.37 kg/m3	1.757 ± 0.048 mPa·s	795.52 ± 0.37 kg/m3	1.568 ± 0.043 mPa·s	791.44 ± 0.37 kg/m3	1.406 ± 0.039 mPa·s	787.34 ± 0.37 kg/m3	1.3834 ± 0.0011
